Source: ChEMBL document CHEMBL5137099, “Discovery of Novel cccDNA Reducers toward the Cure of Hepatitis B Virus Infection” (J Med Chem, 2022)
The source made the active and inactive calls. The rule behind the calls is not given here.

What was measured:
[1] = Cmax in C3H/J mouse plasma at 300 mg/kg, po by LC-MS/MS analysis; format: ADME, organism-based; set-up: dose 300 mg/kg, route po
[2] = Tmax in C3H/J mouse at 300 mg/kg, po by LC-MS/MS analysis; format: ADME, organism-based; conditions: in vivo
[3] = Permeability of the compound by PAMPA analysis; format: ADME; conditions: read-out: permeability
[4] = Aqueous solubility of the compound; format: physicochemical; conditions: buffer
Hepatitis B virus [5] = test: Antiviral activity against HBV infected in human HepDES19 cells assessed as reduction in HBV cccDNA production by measuring inhibition of HBeAg secretion at 0.3 to 30 uM by southern blot analysis; format: functional, organism-based; conditions: dose 0.3-30 µM
Hepatitis B virus [6] = test: Antiviral activity against HBV infected HBVcircle mouse model assessed as reduction in cccDNA levels in mouse liver at 300 mg/kg, po bid treated for 3 weeks and measured up to 56 days by qPCR analysis; format: functional, organism-based
[7] = Dose normalized AUC (0 to 24 hrs) in C3H/J mouse at 20 mg/kg, po by LC-MS/MS analysis; format: ADME, organism-based; conditions: in vivo
Hepatitis B virus [8] = test: Antiviral activity against HBV infected in human primary hepatocyte cells assessed as reduction in HBV cccDNA production by measuring inhibition of HBsAg secretion measured after 48 hrs by ELISA; format: functional, organism-based
[9] = Dose normalized Cmax in C3H/J mouse at 5 mg/kg, po by LC-MS/MS analysis; format: ADME, organism-based; conditions: in vivo
Hepatitis B virus [10] = test: Antiviral activity against HBV infected HBVcircle mouse model assessed as reduction in HBeAg levels in mouse serum at 300 mg/kg, po bid treated for 3 weeks and measured up to 56 days; format: functional, organism-based
[11] = fCaverage in HBVcircle mouse model at 100 mg/kg QD; format: ADME, organism-based; conditions: in vivo
[12] = Dose normalized Cmax in C3H/J mouse at 20 mg/kg, po by LC-MS/MS analysis; format: ADME, organism-based; conditions: in vivo
[13] = Half life in C3H/J mouse at 5 mg/kg, po by LC-MS/MS analysis; format: ADME, organism-based; conditions: in vivo
[14] = AUC (0 to infinity) in C3H/J mouse at 5 mg/kg, po by LC-MS/MS analysis; format: ADME, organism-based; set-up: time infinity, dose 5 mg/kg, route po; conditions: in vivo
[15] = fCmin in HBVcircle mouse model at 300 mg/kg BID; format: ADME, organism-based; conditions: in vivo
[16] = Metabolic stability in mouse hepatocytes assessed as intrinsic clearance; format: ADME, cell-based, Hepatocyte; conditions: read-out: CLH
[17] = Cmax in C3H/J mouse plasma at 100 mg/kg, po by LC-MS/MS analysis; format: ADME, organism-based; set-up: dose 100 mg/kg, route po
[18] = Tmax in C3H/J mouse at 5 mg/kg, po by LC-MS/MS analysis; format: ADME, organism-based; conditions: in vivo
[19] = Dose normalized AUC (0 to 24 hrs) in C3H/J mouse at 100 mg/kg, po by LC-MS/MS analysis; format: ADME, organism-based; conditions: in vivo
Hepatitis B virus [20] = test: Antiviral activity against HBV infected in human HepDES19 cells assessed as reduction in HBV cccDNA production by measuring inhibition of HBeAg secretion incubated for 5 days by ELISA; format: functional, organism-based; conditions: HepDES19, 120 h
[21] = fCaverage in HBVcircle mouse model at 100 mg/kg BID; format: ADME, organism-based; conditions: in vivo
[22] = fCmax in HBVcircle mouse model at 300 mg/kg BID; format: ADME, organism-based; conditions: in vivo
Hepatitis B virus [23] = test: Antiviral activity against HBV infected in human HepG2 cells assessed as reduction in HBeAg secretion incubated for 5 days by counter screen assay; format: functional, organism-based; conditions: HepG2, 120 h
[24] = AUC (0 to infinity) in C3H/J mouse at 100 mg/kg, po by LC-MS/MS analysis; format: ADME, organism-based; set-up: time infinity, dose 100 mg/kg, route po; conditions: in vivo
[25] = fCmin in HBVcircle mouse model at 100 mg/kg BID; format: ADME, organism-based; conditions: in vivo
[26] = Dose normalized Cmax in C3H/J mouse at 100 mg/kg, po by LC-MS/MS analysis; format: ADME, organism-based; conditions: in vivo
[27] = Half life in C3H/J mouse at 20 mg/kg, po by LC-MS/MS analysis; format: ADME, organism-based; conditions: in vivo
[28] = Octanol-aqueous buffer distribution coefficient, log D of the compound at pH 7.4 by CAMDIS assay; format: physicochemical
[29] = Cmax in C3H/J mouse plasma at 20 mg/kg, po by LC-MS/MS analysis; format: ADME, organism-based; set-up: dose 20 mg/kg, route po
[30] = AUC (0 to infinity) in C3H/J mouse at 20 mg/kg, po by LC-MS/MS analysis; format: ADME, organism-based; set-up: time infinity, dose 20 mg/kg, route po; conditions: in vivo
[31] = fCmax in HBVcircle mouse model at 100 mg/kg QD; format: ADME, organism-based; conditions: in vivo
[32] = Dose normalized AUC (0 to 24 hrs) in C57BL/6 mouse at 5 mg/kg, po by LC-MS/MS analysis; format: ADME, organism-based; conditions: in vivo
Hepatitis B virus [33] = test: Antiviral activity against HBV infected HBVcircle mouse model assessed as reduction in HBsAg levels in mouse serum at 300 mg/kg, po bid treated for 3 weeks and measured up to 56 days; format: functional, organism-based
[34] = fCmax in HBVcircle mouse model at 100 mg/kg BID; format: ADME, organism-based; conditions: in vivo
[35] = Toxicity in C3H/J mouse assessed as tolerability at 100 to 300 mg/kg BID for 5 days; format: organism-based; conditions: in vivo, 120 h, dose 100-300 mg/kg, time 5 day
[36] = Half life in C3H/J mouse at 100 mg/kg, po by LC-MS/MS analysis; format: ADME, organism-based; conditions: in vivo
[37] = Dose normalized Cmax in C3H/J mouse at 300 mg/kg, po by LC-MS/MS analysis; format: ADME, organism-based; conditions: in vivo
[38] = Tmax in C3H/J mouse at 100 mg/kg, po by LC-MS/MS analysis; format: ADME, organism-based; conditions: in vivo
[39] = Dose normalized AUC (0 to 12 hrs) in C3H/J mouse at 300 mg/kg, po by LC-MS/MS analysis; format: ADME, organism-based; conditions: in vivo
[40] = Tmax in C3H/J mouse at 20 mg/kg, po by LC-MS/MS analysis; format: ADME, organism-based; conditions: in vivo
[41] = fCmin in HBVcircle mouse model at 100 mg/kg QD; format: ADME, organism-based; conditions: in vivo
[42] = Cmax in C3H/J mouse plasma at 5 mg/kg, po by LC-MS/MS analysis; format: ADME, organism-based; set-up: dose 5 mg/kg, route po
[43] = fCaverage in HBVcircle mouse model at 300 mg/kg BID; format: ADME, organism-based; conditions: in vivo
[44] = AUC (0 to 12 hrs) in C3H/J mouse at 300 mg/kg, po by LC-MS/MS analysis; format: ADME, organism-based; set-up: time < 12 hr, dose 300 mg/kg, route po; conditions: in vivo

`O=C(O)[C@@H]1CCN(c2ccc3c(=O)c4cccc(Cl)c4oc3c2)C1` gave a Cmax [1] of 59.9 µg/mL, a Tmax [2] of 2.67 h and a Papp [3] of 28.2 nm/s. The solubility [4] was greater than 0.452 mg/mL, the Activity (Hepatitis B virus [5]) was “Active” and the Activity (Hepatitis B virus [6]) was “Active”. The AUC/dose [7] was 591 (ng·h/mL)/(mg/kg), the IC50 (Hepatitis B virus [8]) was 1.15 µM and the Cmax/dose [9] was 0.166 µg/mL. For the same compound, the Activity (Hepatitis B virus [10]) was “Active”, the “f(Cave)” value [11] was 0.178 µM and the Cmax/dose [12] was 0.408 µg/mL. For the same compound, the half-life [13] was 3.46 h, the AUC(0-inf) [14] was 0.857 µg·h/mL and the fCmin [15] was 62.2 nM. The CLint scaled [16] was 3.11 L/h/kg, the Cmax [17] was 32.2 µg/mL and the Tmax [18] was 0.25 h. The AUC/dose [19] was 1200 (ng·h/mL)/(mg/kg), the IC50 (Hepatitis B virus [20]) was 0.58 µM and the “f(Cave)” value [21] was 0.351 µM. It also gave a fCmax [22] of 3.452 µM, an IC50 (Hepatitis B virus [23]) greater than 50 µM and an AUC(0-inf) [24] of 120 µg·h/mL. It also gave a fCmin [25] of 20.7 nM, a Cmax/dose [26] of 0.322 µg/mL and a half-life [27] of 3.45 h. It also gave a logD [28] of 1, a Cmax [29] of 8.16 µg/mL and an AUC(0-inf) [30] of 11.8 µg·h/mL. The fCmax [31] was 1151 nM, the AUC/dose [32] was 1042 ng·h/mL and the Activity (Hepatitis B virus [33]) was “Active”. For the same compound, the fCmax [34] was 1151 nM, the Activity [35] was “Non-Toxic” and the half-life [36] was 1.82 h. For the same compound, the Cmax/dose [37] was 0.2 µg/mL, the Tmax [38] was 0.5 h and the AUC/dose [39] was 1510 (ng·h/mL)/(mg/kg). The Tmax [40] was 0.5 h, the fCmin [41] was 0.23 nM and the Cmax [42] was 0.828 µg/mL. The “f(Cave)” value [43] was 1.053 µM and the AUC(0-t) at 12 h [44] was 453 µg·h/mL.
